Experimental data reported in article PMC5979531, “Structural Requirements of Alkylglyceryl-L-Ascorbic Acid Derivatives for Melanogenesis Inhibitory Activity” (International Journal of Molecular Sciences, 2018).

Key:
[1] = Cell viability of B16 melanoma 4A5 cells; type: cell-based, murine; details: mouse, B16 4A5 cells
Protocol: (§1) The effects on theophylline-stimulated melanogenesis and viability of B16 melanoma 4A5 cells were examined according to previously described protocols. Briefly, murine B16 melanoma 4A5 cells were seeded into 48-well plates in DMEM. After 24 h of culture, a test compound and theophylline (1 mM) were added and incubated for 72 h. The melanin content and cell viability were then measured. IC50 values were determined graphically.

TRP-2 mRNA = experiment: Expression of TRP-2 mRNA (qRT-PCR); type: cell-based, murine; details: 3 µM, B16 4A5 cells, theophylline 1 mM, 72 h
Protocol: (§2) The expression of tyrosinase, TRP-1, and TRP-2 mRNA was assessed according to previously reported methods. Briefly, murine B16 melanoma 4A5 cells were seeded into 96-well plates in DMEM. After 24 h of culture, a test compound and theophylline (1 mM) were added and incubated for 72 h. Then, the amount of each mRNA was quantified by quantitative reverse transcription PCR.

B16 melanoma 4A5 cells = experiment: Theophylline-stimulated melanogenesis inhibition (melanin content); type: cell-based, murine; details: Mus musculus, 72 h; for inhibition at 3 µM / inhibition at 10 µM / inhibition at 30 µM / inhibition at 100 µM: theophylline-stimulated B16 4A5 cells; for IC50: theophylline (1 mM)-stimulated B16 melanoma 4A5 cells
Protocol: as §1
Inhibition (%) was calculated using the following formula, where A and B indicate the optical density of the vehicle- and test compound-treated groups, respectively, and C indicates cell viability (%) (see below): Inhibition (%) = [(A − B)/A]/(C/100) × 100.

tyrosinase mRNA = experiment: Expression of tyrosinase mRNA (qRT-PCR); type: cell-based, murine; details: 3 µM, B16 4A5 cells, theophylline 1 mM, 72 h
Protocol: as §2

TRP-1 mRNA = experiment: Expression of TRP-1 mRNA (qRT-PCR); type: cell-based, murine; details: B16 4A5 cells, theophylline 1 mM, 72 h
Protocol: as §2

tyrosinase from mushroom = experiment: Mushroom tyrosinase activity; type: biochemical
Protocol: Tyrosinase activities using L-tyrosine or L-DOPA as a substrate were determined according to the protocols described previously. Briefly, samples, L-tyrosine (2.5 mM, or L-DOPA, 3.0 mM), mushroom tyrosinase (46 units/mL), and phosphate buffer were mixed in a 96-well plate and incubated at 25 °C. (L-tyrosine; 30 min, L-DOPA; 5 min). The absorbance was then measured at 492 nm.

Compound | viability at 72 h, 3 µM [1] | viability at 72 h, 10 µM [1] | viability at 72 h, 30 µM [1] | viability at 72 h, 100 µM [1] | TRP-2 mRNA/β-actin mRNA (TRP-2 mRNA) | inhibition at 3 µM (B16 melanoma 4A5 cells) | inhibition at 10 µM (B16 melanoma 4A5 cells) | inhibition at 30 µM (B16 melanoma 4A5 cells) | inhibition at 100 µM (B16 melanoma 4A5 cells) | IC50 (B16 melanoma 4A5 cells) | Tyrosinase mRNA/β-actin mRNA (tyrosinase mRNA) | TRP-1 mRNA/β-actin mRNA (TRP-1 mRNA; 3 µM) | TRP-1 mRNA/β-actin mRNA (TRP-1 mRNA; 10 µM) | Inhibition (%) of mushroom tyrosinase (tyrosinase from mushroom; Substrate: L-DOPA, 10 µM) | Inhibition (%) of mushroom tyrosinase (tyrosinase from mushroom; Substrate: L-DOPA, 30 µM) | Inhibition (%) of mushroom tyrosinase (tyrosinase from mushroom; Substrate: L-Tyrosine, 10 µM) | Inhibition (%) of mushroom tyrosinase (tyrosinase from mushroom; Substrate: L-Tyrosine, 30 µM) | Inhibition (%) of mushroom tyrosinase (tyrosinase from mushroom; Substrate: L-DOPA, 100 µM) | Inhibition (%) of mushroom tyrosinase (tyrosinase from mushroom; Substrate: L-Tyrosine, 100 µM)
CCCCCCCCCCCCCCOC1=C(OCC(O)CO)[C@@H]([C@@H](O)CO)OC1=O (some centres unmarked) [compound 14, 3-O-(2,3-dihydroxypropyl)-2-O-tetradecyl-AsA] | 101% | 89.1% | 56.3% | 21% | 0.58 ± 0.06 | 6.3 ± 2.6% | 48.4 ± 2.2% | 97.6 ± 1.8% | 100 ± 18.2% | 11.1 µM | 0.78 ± 0.10 | 1.02 ± 0.27 | 0.92 ± 0.22 | −8.9 ± 3.5% | −8.2 ± 4.3% | −7.0 ± 6.7% | −9.7 ± 2.7% | – | –
CCCCCCCCOC1=C(OCC(O)CO)[C@@H]([C@@H](O)CO)OC1=O (some centres unmarked) [compound 8, 3-O-(2,3-dihydroxypropyl)-2-O-octyl-AsA] | 108% | 103% | 92.5% | 80% | – | 5.7 ± 6.9% | 10.6 ± 4.6% | 22.4 ± 4.4% | 64.1 ± 8.2% | 68.8 µM | – | – | – | – | 2.4 ± 1.1% | – | −0.3 ± 2.3% | 2.3 ± 2.7% | −0.6 ± 4.3%
CCCCCCCCCCCCOC1=C(OCC(O)CO)C(=O)O[C@@H]1[C@@H](O)CO (some centres unmarked) [compound 26, 2-O-(2,3-dihydroxypropyl)-3-O-dodecyl-AsA] | 99.8% | 87.3% | 45.5% | 24.3% | – | 14.1 ± 8.5% | 46 ± 3% | 96.2 ± 2.8% | 89.6 ± 24.4% | 12.1 µM | – | – | – | −6.4 ± 3.1% | −6.6 ± 8.7% | −2.2 ± 6.4% | −0.5 ± 4.3% | – | –
CCCCCCCCCCOC1=C(OCC(O)CO)[C@@H]([C@@H](O)CO)OC1=O (some centres unmarked) [compound 10, 2-O-decyl-3-O-(2,3-dihydroxypropyl)-AsA] | 98.6% | 85.9% | 73.5% | 27.9% | – | 3.7 ± 7.8% | 39.2 ± 4.1% | 78.1 ± 4.8% | 98 ± 3.7% | 13 µM | – | – | – | 0.4 ± 1.1% | 2.4 ± 2.9% | 1.3 ± 3.1% | 0.4 ± 1.7% | – | –
CCCCCCCCOC1=C(OCC(O)CO)C(=O)O[C@@H]1[C@@H](O)CO (some centres unmarked) [compound 22, 2-O-(2,3-dihydroxypropyl)-3-O-octyl-AsA] | 98.8% | 99.3% | 91.6% | 83% | – | -10.4 ± 6% | 1 ± 7% | 2.3 ± 5.9% | 34.8 ± 8.2% | > 100 µM | – | – | – | – | −13.1 ± 3.3% | – | −11.5 ± 1.6% | −4.5 ± 2.0% | −14.4 ± 1.8%
CCCCCCCCCCOC1=C(OCC(O)CO)C(=O)O[C@@H]1[C@@H](O)CO (some centres unmarked) [compound 24, 3-O-decyl-2-O-(2,3-dihydroxypropyl)-AsA] | 92.5% | 87.1% | 68.5% | 34.3% | – | -5.8 ± 6% | 20.9 ± 5.4% | 64.3 ± 3.8% | 103 ± 2.4% | 23.5 µM | – | – | – | 0.7 ± 3.8% | −5.3 ± 4.2% | −4.1 ± 5.3% | −3.1 ± 4.1% | – | –
CCCCCCCCCCCCCOC1=C(OCC(O)CO)C(=O)O[C@@H]1[C@@H](O)CO (some centres unmarked) [compound 27, 2-O-(2,3-dihydroxypropyl)-3-O-tridecyl-AsA] | 105% | 84.3% | 40.2% | 21% | – | 20.1 ± 5.7% | 44.2 ± 3.9% | 96.6 ± 3% | 113 ± 10.1% | 11.7 µM | – | – | – | −2.0 ± 3.3% | −3.2 ± 2.7% | −3.3 ± 8.1% | −5.4 ± 1.9% | – | –
CCCCCCCCCOC1=C(OCC(O)CO)C(=O)O[C@@H]1[C@@H](O)CO (some centres unmarked) [compound 23, 2-O-(2,3-dihydroxypropyl)-3-O-nonyl-AsA] | 96.6% | 90.6% | 81.2% | 60.7% | – | -1.3 ± 9.4% | -2.6 ± 8% | 14.9 ± 5.6% | 77.1 ± 2.4% | 72.9 µM | – | – | – | – | −4.1 ± 2.2% | – | −5.0 ± 3.1% | −1.5 ± 2.2% | −2.6 ± 2.4%
CCCCCCCCCCCOC1=C(OCC(O)CO)[C@@H]([C@@H](O)CO)OC1=O (some centres unmarked) [compound 11, 3-O-(2,3-dihydroxypropyl)-2-O-undecyl-AsA] | 106% | 90.8% | 69% | 25.8% | – | 12.4 ± 3% | 35.4 ± 2.8% | 89.3 ± 1.5% | 100 ± 4.7% | 15.1 µM | – | – | – | −4.6 ± 1.4% | −5.1 ± 2.2% | 2.9 ± 3.9% | 1.0 ± 2.5% | – | –
CCCCCCCCCCCCOC1=C(OCC(O)CO)[C@@H]([C@@H](O)CO)OC1=O (some centres unmarked) [compound 12, 3-O-(2,3-dihydroxypropyl)-2-O-dodecyl-AsA] | 112% | 104% | 73.3% | 24.6% | – | 20.4 ± 10.2% | 50 ± 5.7% | 96 ± 2.9% | 97.9 ± 4.2% | 10.6 µM | – | – | – | −3.1 ± 3.3% | −4.6 ± 2.2% | −0.7 ± 4.5% | −7.1 ± 1.4% | – | –
CCCCCCCCCCCOC1=C(OCC(O)CO)C(=O)O[C@@H]1[C@@H](O)CO (some centres unmarked) [compound 25, 2-O-(2,3-dihydroxypropyl)-3-O-undecyl-AsA] | 101% | 85.8% | 53.6% | 24% | – | -5.1 ± 2.3% | 26.6 ± 3% | 85 ± 3.8% | 101 ± 10.1% | 18.1 µM | – | – | – | −10.2 ± 2.3% | −10.7 ± 3.8% | −8.0 ± 0.6% | −8.7 ± 1.5% | – | –
CCCCCCCCCOC1=C(OCC(O)CO)[C@@H]([C@@H](O)CO)OC1=O (some centres unmarked) [compound 9, 3-O-(2,3-dihydroxypropyl)-2-O-nonyl-AsA] | 99.2% | 88.9% | 77.6% | 58.4% | – | 0.2 ± 4.4% | 19.1 ± 1.3% | 51.9 ± 4.6% | 91.6 ± 1.2% | 28.8 µM | – | – | – | – | 4.8 ± 6.6% | – | 4.0 ± 6.1% | 0.9 ± 6.0% | −1.2 ± 4.5%
CCCCCCCOC1=C(OCC(O)CO)C(=O)O[C@@H]1[C@@H](O)CO (some centres unmarked) [compound 21, 2-O-(2,3-dihydroxypropyl)-3-O-heptyl-AsA] | 97.9% | 92.7% | 92.7% | 86.3% | – | -6.3 ± 2.7% | 0.9 ± 8.2% | 21 ± 5% | 44.6 ± 6.2% | > 100 µM | – | – | – | – | −10.0 ± 1.7% | – | −9.2 ± 2.1% | −11.3 ± 2.4% | −9.8 ± 3.9%
